Results from patent US5523315A, “N-(hydroxyethyl)butanediamide derivatives” (Bio-Mega/Boehringer Ingelheim Research Inc., priority 1993, dated 1996).

molecular target: T1, human renin (Homo sapiens, UniProt P00797); test: plasma renin assay (inhibition of human renin; angiotensin I generated, measured by radioimmunoassay); format: biochemical; conditions: human plasma pool, pH 6.0, 2 h incubation at 37°
T1 construct: A human plasma pool is used as the source of both the substrate (angiotensinogen) and the enzyme (renin); from tissue; host or cells: pooled human plasma
T1 sequence (P00797 67-406): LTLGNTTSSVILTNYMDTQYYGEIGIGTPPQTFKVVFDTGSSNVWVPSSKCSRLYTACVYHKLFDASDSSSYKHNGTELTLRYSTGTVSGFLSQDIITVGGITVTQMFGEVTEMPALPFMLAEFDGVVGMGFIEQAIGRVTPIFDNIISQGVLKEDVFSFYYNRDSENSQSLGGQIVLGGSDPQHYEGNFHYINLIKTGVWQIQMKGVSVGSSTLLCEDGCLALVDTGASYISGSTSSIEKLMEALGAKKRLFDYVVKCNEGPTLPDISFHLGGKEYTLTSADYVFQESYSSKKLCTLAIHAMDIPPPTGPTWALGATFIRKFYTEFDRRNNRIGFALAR
Protocol: The assay is performed as follows: The test compound (i.e. the inhibitor) is dissolved in dimethylsulfoxide (1 mM stock solution) and diluted with an aqueous buffer solution of 270 mM 2-(N-morpholino)ethanesulfonic acid and 1% human serum albumin (pH 5.85, also containing dimercaprol and 8-hydroxyquinoline sulfate in accordance with the instructions of the RIA kit noted below) to give an assay mixture in which the final dimethylsulfoxide content is 1% (v/v).
A human plasma pool is used as the source of both the substrate (angiotensinogen) and the enzyme (renin). The reaction is initiated by the addition of 50 μL of human plasma pool to 50 μL of various concentrations of inhibitor in the 1% dimethylsulfoxide assay buffer. The plasma renin activity is measured by the amount of angiotensin I generated at pH 6.0 following a 2 h incubation at 37°.
Quantitation of angiotensin I is performed by radioimmunoassay (RIA kit from New England Nuclear-Dupont, Mississauga, ON, Canada). The enzymatic activity of renin is expressed in ng of angiotensin I generated (/mL/2 h). The extent of inhibition of the reaction is determined from the amount of angiotensin I generated in reference to a control prepared without inhibitor. Nonlinear regression analysis is used to calculate the IC50 values, i.e. the molar concentration of the test compound required to cause a 50% inhibition of the enzyme activity.

SMILES | IC50 [nM]
CC(C)C[C@H](O)[C@H](O)[C@H](CC1CCCCC1)NC(=O)[C@@H](CC(=O)N(CC1CCCCC1)CC(C)(C)O)Cc1c[nH]cn1 [Compound 43, N^4-(cyclohexylmethyl)-N^4-(2-hydroxy-2-methylpropyl)-N^1-[1(S)-(cyclohexylmethyl)-2(R),3(S)-dihydroxy-5-methylhexyl]-2(R)-(1H-imidazol-4-ylmethyl)butanediamide] | 14
CC(C)C[C@H](O)[C@H](O)[C@H](CC1CCCCC1)NC(=O)[C@@H](CC(=O)N[C@@H](CO)CC1CCCCC1)Cc1cscn1 [Compound 45] | 37
CC(C)C[C@H](O)[C@H](O)[C@H](CC1CCCCC1)NC(=O)[C@@H](CC(=O)N(CC(=O)N(C)C)CC1(O)CCCCC1)Cc1csc(N)n1 [Compound 46, N^4-[2-(dimethylamino)-2-oxoethyl]-N^4-[(1-hydroxycyclohexyl)methyl]-N^1-[1(S)-(cyclohexylmethyl)-2(R),3(S)-dihydroxy-5-methylhexyl]-2(R)-[(2-amino-4-thiazolyl)methyl]butanediamide] | 1.3
CC(C)C[C@H](O)[C@H](O)[C@H](CC1CCCCC1)NC(=O)[C@@H](CC(=O)N(CC(=O)N(C)CCc1ccccn1)CC1(O)CCCCC1)Cc1csc(N)n1 [Compound 49, N^4-[(1-hydroxycyclohexyl)methyl]-N^4 -{2-{methyl[2-(2-pyridinyl)ethyl]amino}-2-oxoethyl}-N^1-[1(S)-(cyclohexylmethyl)-2(R),3(S)-dihydroxy-5-methylhexyl]-2(R)-[(2-amino-4-thiazolyl)methyl]butanediamide] | 2
CC(C)C[C@H](O)[C@H](O)[C@H](CC1CCCCC1)NC(=O)[C@@H](CC(=O)N(CC1CCCC1)CC(C)(C)O)Cc1cscn1 [Compound 50, N^4-(cyclopentylmethyl)-N^4-(2-hydroxy-2-methylpropyl)-N^1-[1(S)-(cyclohexylmethyl)-2(R),3(S)-dihydroxy-5-methylhexyl]-2(R)-(4-thiazolylmethyl)butanediamide] | 13
CC(C)C[C@H](O)[C@H](O)[C@H](CC1CCCCC1)NC(=O)[C@@H](CC(=O)N(CC1CCCCCC1)CC(C)(C)O)Cc1cscn1 [Compound 51, N^4-(cycloheptylmethyl)-N^4-(2-hydroxy-2-methylpropyl)-N^1-[1(S)-(cyclohexylmethyl)-2(R),3(S)-dihydroxy-5-methylhexyl]-2(R)-(4-thiazolylmethyl)butanediamide] | 5
CC(C)C[C@H](O)[C@H](O)[C@H](CC1CCCCC1)NC(=O)[C@@H](CC(=O)N(CC(=O)N(C)C)CC1(O)CCCCC1)Cc1cccnc1 [Compound 52, N^4-[(1-hydroxycyclohexyl)methyl]-N^4-[2-(dimethylamino)-2-oxoethyl]-N^1-[1(S)-(cyclohexylmethyl)-2(R),3(S)-dihydroxy-5-methylhexyl]-2(R)-(3-pyridinylmethyl)butanediamide] | 33
CC(C)C[C@H](O)[C@H](O)[C@H](CC1CCCCC1)NC(=O)[C@@H](CC(=O)N(CC(=O)N(C)C)CC1(O)CCCCCC1)Cc1csc(N)n1 [Compound 53, N^4-[(1-hydroxycycloheptyl)methyl]-N^4-[2-(dimethylamino)-2-oxoethyl]-N^1-[1(S)-(cyclohexylmethyl)-2(R),3(S)-dihydroxy-5-methylhexyl]-2(R)-[(2-amino-4-thiazolyl)methyl]-butanediamide] | 2
CC(C)C[C@H](O)[C@H](O)[C@H](CC1CCCCC1)NC(=O)[C@@H](CC(=O)N(CC(=O)N(C)C)CC1(O)CCCCCCC1)Cc1csc(N)n1 [Compound 56, N^4-[(1-hydroxycyclooctyl)methyl]-N^4-[2-(dimethylamino)-2-oxoethyl]-N^1-[1(S)-(cyclohexylmethyl)-2(R),3(S)-dihydroxy-5-methylhexyl]-2(R)-[(2-amino-4-thiazolyl)methyl]butanediamide] | 1
CC(C)C[C@H](O)[C@H](O)[C@H](CC1CCCCC1)NC(=O)[C@@H](CC(=O)N(CC(=O)N(C)CCc1ccccn1)CC1(O)CCCCCC1)Cc1csc(N)n1 [Compound 59, N^4-[(1-hydroxycycloheptyl)methyl]-N^4 -{2-{methyl[2-(2-pyridinyl)ethyl]amino}-2-oxoethyl}-N^1-[1(S)-(cyclohexylmethyl)-2(R),3(S)-dihydroxy-5-methylhexyl]-2(R)-[(2-amino-4-thiazolyl)methyl]butanediamide] | 1.5
CC(=O)CN(CC1CCCCC1)C(=O)C[C@@H](Cc1cscn1)C(=O)N[C@@H](CC1CCCCC1)[C@@H](O)[C@@H](O)CC(C)C [Compound 60, N^4-(cyclohexylmethyl)-N^4-(2-oxopropyl)-N^1-[1(S)-(cyclohexylmethyl)-2(R),3(S)-dihydroxy-5-methylhexyl]-2(R)-(4-thiazolylmethyl)butanediamide] | 2
CC(C)C[C@H](O)[C@H](O)[C@H](CC1CCCCC1)NC(=O)[C@@H](CC(=O)N(CC(=O)C(C)C)CC1CCCCC1)Cc1cscn1 [Compound 61, N^4-(cyclohexylmethyl)-N^4-(3-methyl-2-oxobutyl)-N^1-[1(S)-(cyclohexylmethyl)-2(R),3(S)-dihydroxy-5-methylhexyl]-2(R)-(4-thiazolylmethyl)butanediamide] | 9
COC1(CN(CC(=O)N(C)CCc2ccccn2)C(=O)C[C@@H](Cc2csc(N)n2)C(=O)N[C@@H](CC2CCCCC2)[C@@H](O)[C@@H](O)CC(C)C)CCCCC1 [Compound 62, N^4-[(1-methoxycyclohexyl)methyl]-N^4 -{2-{methyl[2-(2-pyridinyl)ethyl]amino}-2-oxoethyl}-N^1-[1(S)-(cyclohexylmethyl)-2(R),3(S)-dihydroxy-5-methylhexyl]-2(R)-[(2-amino-4-thiazolyl)methyl]butanediamide] | 2

Next, values leading:

IC50 [nM] | SMILES
9 | CC(C)C[C@H](O)[C@H](O)[C@H](CC1CCCCC1)NC(=O)[C@@H](CC(=O)N(CC1CCCCC1)CC(C)(C)O)Cc1csc(N)n1 [Compound 41, N^4-(cyclohexylmethyl)-N^4-(2-hydroxy-2-methylpropyl)-N^1-[1(S)-(cyclohexylmethyl)-2(R),3(S)-dihydroxy-5-methylhexyl]-2(R)-[(2-amino-4-thiazolyl)methyl]butanediamide]
7 | CC(C)C[C@H](O)[C@H](O)[C@H](CC1CCCCC1)NC(=O)[C@@H](CC(=O)N(CC1CCCC1)CC(C)(C)O)Cc1csc(N)n1 [Compound 47, N^4-(cyclopentylmethyl)-N^4-(2-hydroxy-2-methylpropyl)-N^1-[1(S)-(cyclohexylmethyl)-2(R),3(S)-dihydroxy-5-methylhexyl]-2(R)-[(2-amino-4-thiazolyl)methyl]butanediamide]
5 | CC(C)C[C@H](O)[C@H](O)[C@H](CC1CCCCC1)NC(=O)[C@@H](CC(=O)N(CC1CCCCCC1)CC(C)(C)O)Cc1csc(N)n1 [Compound 48, N^4-(cycloheptylmethyl)-N^4-(2-hydroxy-2-methylpropyl)-N^1-[1(S)-(cyclohexylmethyl)-2(R),3(S)-dihydroxy-5-methylhexyl]-2(R)-[(2-amino-4-thiazolyl)methyl]butanediamide]
26 | CC(C)C[C@H](O)[C@H](O)[C@H](CC1CCCCC1)NC(=O)[C@@H](CC(=O)N(Cc1ccccc1)CC(C)(C)O)Cc1csc(N)n1 [Compound 54, N^4-benzyl-N^4-(2-hydroxy-2-methylpropyl)-N^1-[1(S)-(cyclohexylmethyl)-2(R),3(S)-dihydroxy-5-methylhexyl]-2(R)-[(2-amino-4-thiazolyl)methyl]-butanediamide]
21 | CC(C)C[C@H](O)[C@H](O)[C@H](CC1CCCCC1)NC(=O)[C@@H](CC(=O)N(Cc1ccco1)CC(C)(C)O)Cc1csc(N)n1 [Compound 55, N^4-(2-furanylmethyl)-N^4-(2-hydroxy-2-methylpropyl)-N^1-[1(S)-(cyclohexylmethyl)-2(R),3(S)-dihydroxy-5-methylhexyl]-2(R)-[(2-amino-4-thiazolyl)methyl]butanediamide]
37 | Cc1ccccc1CN(CC(C)(C)O)C(=O)C[C@@H](Cc1csc(N)n1)C(=O)N[C@@H](CC1CCCCC1)[C@@H](O)[C@@H](O)CC(C)C [Compound 57, N^4-[(2-methylphenyl)methyl]-N^4-(2-hydroxy-2-methylpropyl)-N^1-[1(S)-(cyclohexylmethyl)-2(R),3(S)-dihydroxy-5-methylhexyl]-2(R)-[(2-amino-4-thiazolyl)methyl]butanediamide]
15 | CCC(CC)CN(CC(C)(C)O)C(=O)C[C@@H](Cc1csc(N)n1)C(=O)N[C@@H](CC1CCCCC1)[C@@H](O)[C@@H](O)CC(C)C [Compound 58, N^4-(2-ethylbutyl)-N^4-(2-hydroxy-2-methylpropyl)-N^1-[1(S)-(cyclohexylmethyl)-2(R),3(S)-dihydroxy-5-methylhexyl]-2(R)-[(2-amino-4-thiazolyl)methyl]butanediamide]
